Reference: patent US20050245550A1, “Fungicidal mixtures based on the dithianon” (priority 2002, published 2005)

Legend:
Botrytis cinerea = assay: Activity against gray mold on bell pepper leaves caused by Botrytis cinerea; assay type: in vivo; conditions: individual active compound
Method: (§1) The active compounds were prepared separately or jointly as a stock solution comprising 0.25% by weight of active compound in acetone or DMSO. 1% by weight of the emulsifier Uniperol® EL (wetting agent having emulsifying and dispersing action based on ethoxylated alkylphenols) was added to this solution, and the mixture was diluted with water to the desired concentration.
Bell pepper seedlings of the cultivar “Neusiedler Ideal Elite” were, after 4-5 leaves were well developed, sprayed to runoff point with an aqueous suspension having the concentration of active compound stated below. The next day, the treated plants were inoculated with a spore suspension of Botrytis cinerea which contained 1.7×10^6 spores/ml in a 2% strength aqueous biomalt solution. The test plants were then placed in a climatized chamber at 22-24° C. and high atmospheric humidity. After 5 days, the extent of the fungal infection on the leaves could be determined visually in %.
(§2) Evaluation was carried out by determining the infected leaf areas in percent. These percentages are converted into efficacies.
(§3) The efficacy (E) is calculated as follows using Abbot's formula: E=(1−α/β)·100 α corresponds to the fungal infection of the treated plants in % and • β corresponds to the fungal infection of the untreated (control) plants in %
(§4) An efficacy of 0 means that the infection level of the treated plants corresponds to that of the untreated control plants; an efficacy of 100 means that the treated plants were not infected.
(§5) The expected efficacies of the active compound mixtures are determined using Colby's formula [S. R. Colby, Weeds 15, 20-22 (1967)] and compared with the observed efficacies.
(§6) Colby's formula: E=x+y−x·y/100 • E expected efficacy, expressed in % of the untreated control, when using the mixture of the active compounds A and B at the concentrations a and b • x efficacy, expressed in % of the untreated control, when using active compound A at a concentration of a
(§7) y efficacy, expressed in % of the untreated control, when using active compound B at a concentration of b

Alternaria solani = assay: Activity against early blight of tomato caused by Alternaria solani; assay type: in vivo; conditions: individual active compound, 5 days after infection
Method: as §1, §2, §3, §4, §5, §6, §7
Leaves of potted plants of the cultivar “Groβe Fleischtomate St. Pierre” were sprayed to runoff point with an aqueous suspension having the concentration of active compounds stated below. The next day, the leaves were infected with an aqueous zoospore suspension of Alternaria solani in 2% biomalt solution having a density of 0.17×10^6 spores/ml. The plants were then placed in a water-vapor-saturated chamber at temperatures of between 20 and 22° C. After 5 days, the infection on the leaves of the untreated, but infected control plants had developed to such an extent that the infection could be determined visually in %.

[1] = concentration in the spray liquor 0.25, 5 days after inoculation
[2] = concentration in the spray liquor 1, 5 days after inoculation
[3] = concentration in the spray liquor 4, 5 days after inoculation

Row | SMILES | Efficacy in % of the untreated control (Botrytis cinerea; [1]) | Efficacy in % of the untreated control (Botrytis cinerea; [2]) | Efficacy in % of the untreated control (Botrytis cinerea; [3]) | Efficacy in % of the untreated control (Botrytis cinerea; concentration in the spray liquor 16, 5 days after inoculation) | Efficacy in % of the untreated control (Alternaria solani; 0.25 ppm in the spray liquor) | Efficacy in % of the untreated control (Alternaria solani; 1 ppm in the spray liquor) | Efficacy in % of the untreated control (Alternaria solani; 4 ppm in the spray liquor)
1 | N#Cc1sc2c(=O)c3ccccc3c(=O)c=2sc1C#N [I, dithianon] | 0% | 0% | 0% | 0% | 0% | 0% | 0%
2 | CC1(C)CCC(Cc2ccc(Cl)cc2)C1(O)Cn1cncn1 (centres unmarked) [II-1, metconazole] | 0% | 49% |  |  | 2% | 63% | 
3 | Fc1ccc(C2(Cn3cncn3)OC2c2ccccc2Cl)cc1 (centres unmarked) [II-2, epoxiconazole] | 9% | 9% |  |  | 63% | 75% | 
4 | CC(C)(C)C(O)(CCc1ccc(Cl)cc1)Cn1cncn1 (centres unmarked) [II-4, tebuconazole] | 0% | 0% | 0% |  | 0% | 63% | 
